Among the data in US10640534B2 (Agios Pharmaceuticals, Inc., priority 2012, dated 2020) are IC50 values, retold here.

Molecules are shown by their SMILES. A value given as a limit tells only on which side of the number the result lay.

The term IC50 denotes the concentration needed to halve the response being measured. A low value points to higher potency.

In the test the test system is U87MG cells. Put plainly: Cellular assay, inhibition of 2-HG production in U87MG cells. The format is cell-based. The conditions noted are these: Homo sapiens, U-87 MG, 48 h. How it is done: Cells (HT1080 or U87MG) are grown in T125 flasks in DMEM containing 10% FBS, 1× penicillin/streptomycin and 500 ug/mL G418 (present in U87MG cells only). They are harvested by trypsin and seeded into 96 well white bottom plates at a density of 5000 cell/well in 100 ul/well in DMEM with 10% FBS. […] Cells are incubated overnight at 37° C. in 5% CO2. The next day test compounds are made up at 2× the final concentration and 100 ul are added to each cell well. The final concentration of DMSO is 0.2% and the DMSO control wells are plated in row G. The plates are then placed in the incubator for 48 hours. […] The cell plate is placed back in the incubator for another 24 hours. At 72 hours post compound addition, 10 mL/plate of Promega Cell Titer Glo reagent is thawed and mixed. The cell plate is removed from the incubator and allowed to equilibrate to room temperature. Then 100 ul of Promega Cell Titer Glo reagent is added to each well of media. The cell plate is then placed on an orbital shaker for 10 minutes and then allowed to sit at room temperature for 20 minutes. The plate is then read for luminescence with an integration time of 500 ms.

For `N#Cc1ccnc(N2C(=O)OC[C@H]2C(=O)N(c2cccc(F)c2)[C@H](C(=O)NC2CCC(F)(F)CC2)c2ccccc2Cl)c1` [Compound 78, (S)—N—((S)-1-(2-Chlorophenyl)-2-((4,4-difluorocyclohexyl)amino)-2-oxoethyl)-3-(4-cyano-pyridin-2-yl)-N-(3-fluorophenyl)-2-oxooxazolidine-4-carboxamide], the IC50 is less than 100 nM. The figure for `CN1C[C@@H](C(=O)N(c2cccc(F)c2)C(C(=O)NC2CC(F)(F)C2)c2ccccc2Cl)N(c2cc(C#N)ccn2)C1=O` (stereo partly drawn) [Compound 79, (4S)—N-(1-(2-chlorophenyl)-2-((3,3-difluorocyclobutyl)amino)-2-oxoethyl)-3-(4-cyanopyridin-2-yl)-N-(3-fluorophenyl)-1-methyl-2-oxoimidazolidine-4-carboxamide] is less than 100 nM; for `N#Cc1ccnc(N2C(=O)NC[C@H]2C(=O)N(c2cccc(F)c2)[C@H](C(=O)NC2CC(F)(F)C2)c2ccccc2Cl)c1` [Compound 80, (S)—N—((S)-1-(2-chlorophenyl)-2-(3,3-difluorocyclobutylamino)-2-oxoethyl)-3-(4-cyanopyridin-2-yl)-N-(3-fluorophenyl)-2-oxoimidazolidine-4-carboxamide] it is less than 100 nM. In turn, `N#Cc1ccnc(N2C(=O)CC[C@H]2C(=O)N(c2cc(F)cc(F)c2)[C@H](C(=O)NC2CCC(F)(F)CC2)c2ccccc2Cl)c1` [Compound 81, (2S)—N-(1-(2-Chlorophenyl)-2-(4,4-difluorocyclohexylamino)-2-oxoethyl)-1-(4-cyanopyridin-2-yl)-N-(3,5-difluorophenyl)-5-oxopyrrolidine-2-carboxamide] displayed an IC50 of less than 100 nM. The figure for `N#Cc1ccnc(N2C(=O)CC[C@H]2C(=O)N(c2cccc(F)c2)[C@H](C(=O)NC2CC(F)(F)C2)c2ccccc2Cl)c1F` [Compound 82, (S)—N—((S)-1-(2-Chlorophenyl)-2-((3,3-difluorocyclobutyl)amino)-2-oxoethyl)-1-(4-cyano-3-fluoropyridin-2-yl)-N-(3-fluorophenyl)-5-oxopyrrolidine-2-carboxamide] is less than 100 nM; for `N#Cc1ccnc(N2C(=O)CC[C@H]2C(=O)N(c2cccc(F)c2)[C@H](C(=O)NC2CCC(F)(F)CC2)c2ccccc2Cl)c1F` [Compound 83, (S)—N—((S)-1-(2-Chlorophenyl)-2-((4,4-difluorocyclohexyl)amino)-2-oxoethyl)-1-(4-cyano-3-fluoropyridin-2-yl)-N-(3-fluorophenyl)-5-oxopyrrolidine-2-carboxamide] it is less than 100 nM. With `N#Cc1ccnc(N2C(=O)CC[C@H]2C(=O)N(c2cccc(S(N)(=O)=O)c2)[C@H](C(=O)NC2CC(F)(F)C2)c2ccccc2Cl)c1` [Compound 84, (S)—N—((S)-1-(2-Chlorophenyl)-2-(3,3-difluorocyclobutylamino)-2-oxoethyl)-1-(4-cyanopyridin-2-yl)-5-oxo-N-(3-sulfamoylphenyl)pyrrolidine-2-carboxamide] the figure was 100 to 500 nM; with `N#Cc1ccnc(N2C(=O)CC[C@H]2C(=O)N(c2cccc(F)c2)[C@H](C(=O)NC2CCC(F)(F)CC2)c2ccccc2Cl)n1` [Compound 85, (S)—N—((S)-1-(2-Chlorophenyl)-2-((4,4-difluorocyclohexyl)amino)-2-oxoethyl)-1-(4-cyanopyrimidin-2-yl)-N-(3-fluorophenyl)-5-oxopyrrolidine-2-carboxamide], less than 100 nM. The figure for `N#Cc1ccnc(N2C(=O)CC[C@H]2C(=O)N(c2cc(F)cc(F)c2)[C@H](C(=O)NC2CC(F)(F)C2)c2ccccc2Cl)n1` [Compound 86, (S)—N—((S)-1-(2-Chlorophenyl)-2-((3,3-difluorocyclobutyl)amino)-2-oxoethyl)-1-(4-cyanopyrimidin-2-yl)-N-(3,5-difluorophenyl)-5-oxopyrrolidine-2-carboxamide] is less than 100 nM; for `N#Cc1ccnc(N2C(=O)CC[C@H]2C(=O)N(c2cc(F)cc(F)c2)[C@H](C(=O)NC2CCC(F)(F)CC2)c2ccccc2Cl)n1` [Compound 87, (S)—N—((S)-1-(2-Chlorophenyl)-2-((4,4-difluorocyclohexyl)amino)-2-oxoethyl)-1-(4-cyanopyrimidin-2-yl)-N-(3,5-difluorophenyl)-5-oxopyrrolidine-2-carboxamide] it is less than 100 nM; for `N#Cc1ccnc(N2C(=O)CC[C@H]2C(=O)N(c2cc(F)cc(F)c2)[C@H](C(=O)NC2CC(F)(F)C2)c2ccccc2Cl)c1F` [Compound 88, (S)—N—((S)-1-(2-Chlorophenyl)-2-((3,3-difluorocyclobutyl)amino)-2-oxoethyl)-1-(4-cyano-3-fluoropyridin-2-yl)-N-(3,5-difluorophenyl)-5-oxopyrrolidine-2-carboxamide] it is less than 100 nM.

Compound `CC(C)(C)OC(=O)N1CC(=O)N(c2cc(C#N)ccn2)[C@H](C(=O)N(c2cccc(F)c2)[C@H](C(=O)NC2CC(F)(F)C2)c2ccccc2Cl)C1` [Compound 89, (3S)-tert-Butyl 3-((1-(2-chlorophenyl)-2-((3,3-difluorocyclobutyl)amino)-2-oxoethyl)(3-fluorophenyl)carbamoyl)-4-(4-cyanopyridin-2-yl)-5-oxopiperazine-1-carboxylate] displayed an IC50 of less than 100 nM.

Compound `N#Cc1ccnc(N2C(=O)OCC[C@H]2C(=O)N(c2cccc(F)c2)C(C(=O)NC2CC(F)(F)C2)c2ccccc2Cl)c1` (stereo partly drawn) [Compound 90, (4S)—N-(1-(2-Chlorophenyl)-2-(3,3-difluorocyclobutylamino)-2-oxoethyl)-3-(4-cyanopyridin-2-yl)-N-(3-fluorophenyl)-2-oxo-1,3-oxazinane-4-carboxamide] returned an IC50 of less than 100 nM.

Turning to `N#Cc1ccnc(N2C(=O)CC[C@H]2C(=O)N(c2cncc(F)c2)C(C(=O)NC2CC(F)(F)C2)c2ccccc2Cl)c1` (stereo partly shown) [Compound 91], the IC50 was less than 100 nM. `CC(=O)N1CC(=O)N(c2cc(C#N)ccn2)[C@H](C(=O)N(c2cccc(F)c2)[C@H](C(=O)NC2CC(F)(F)C2)c2ccccc2Cl)C1` [Compound 92, (S)-4-Acetyl-N—((S)-1-(2-chlorophenyl)-2-(3,3-difluorocyclobutylamino)-2-oxoethyl)-1-(4-cyanopyridin-2-yl)-N-(3-fluorophenyl)-6-oxopiperazine-2-carboxamide] yielded an IC50 of less than 100 nM. For `CC(C)(C)OC(=O)N1CC(=O)N(c2nccc(C#N)n2)[C@H](C(=O)N(c2cc(F)cc(F)c2)[C@H](C(=O)NC2CCC(F)(F)CC2)c2ccccc2Cl)C1` [Compound 93, (S)-tert-Butyl 3-(((S)-1-(2-chlorophenyl)-2-((4,4-difluorocyclohexyl)amino)-2-oxoethyl)(3,5-difluorophenyl)carbamoyl)-4-(4-cyanopyrimidin-2-yl)-5-oxopiperazine-1-carboxylate], the IC50 is less than 100 nM. Compound `CCOC(=O)CN1C[C@@H](C(=O)N(c2cccc(F)c2)C(C(=O)NC2CC(F)(F)C2)c2ccccc2Cl)N(c2cc(C#N)ccn2)C1=O` (stereo partly drawn) [Compound 94, Ethyl 2-((4S)-4-((1-(2-chlorophenyl)-2-((3,3-difluorocyclobutyl)amino)-2-oxoethyl)(3-fluorophenyl)carbamoyl)-3-(4-cyanopyridin-2-yl)-2-oxoimidazolidin-1-yl)acetate] showed an IC50 of less than 100 nM. The figure for `CS(=O)(=O)c1cccc(N(C(=O)[C@@H]2CCC(=O)N2c2cc(C#N)ccn2)C(C(=O)NC2CCC(F)(F)CC2)c2ccccc2Cl)c1` (stereo partly drawn) [Compound 95, (2S)—N-(1-(2-Chlorophenyl)-2-((4,4-difluorocyclohexyl)amino)-2-oxoethyl)-1-(4-cyanopyridin-2-yl)-N-(3-(methylsulfonyl)phenyl)-5-oxopyrrolidine-2-carboxamide] is less than 100 nM. The figure for `CS(=O)(=O)c1cccc(N(C(=O)[C@@H]2CCC(=O)N2c2cc(C#N)ccn2)C(C(=O)NC2CC(F)(F)C2)c2ccccc2Cl)c1` (stereo partly drawn) [Compound 96, (2S)—N-(1-(2-Chlorophenyl)-2-((3,3-difluorocyclobutyl)amino)-2-oxoethyl)-1-(4-cyanopyridin-2-yl)-N-(3-(methylsulfonyl)phenyl)-5-oxopyrrolidine-2-carboxamide] is less than 100 nM. The figure for `CC(C)(C)OC(=O)N1CC(=O)N(c2nccc(C#N)n2)[C@H](C(=O)N(c2cc(F)cc(F)c2)[C@H](C(=O)NC2CC(F)(F)C2)c2ccccc2Cl)C1` [Compound 98, (3S)-tert-butyl 3-((1-(2-chlorophenyl)-2-((3,3-difluorocyclobutyl)amino)-2-oxoethyl)(3,5-difluorophenyl)carbamoyl)-4-(4-cyanopyrimidin-2-yl)-5-oxopiperazine-1-carboxylate] is less than 100 nM.

Regarding `N#Cc1ccnc(N2C(=O)CNC[C@H]2C(=O)N(c2cc(F)cc(F)c2)[C@H](C(=O)NC2CC(F)(F)C2)c2ccccc2Cl)n1` [Compound 99, (S)—N—((S)-1-(2-chlorophenyl)-2-((3,3-difluorocyclobutyl)amino)-2-oxoethyl)-1-(4-cyanopyrimidin-2-yl)-N-(3,5-difluorophenyl)-6-oxopiperazine-2-carboxamide], the 50% inhibitory concentration (IC50) is less than 100 nM. The figure for `N#Cc1ccnc(N2C(=O)CNC[C@H]2C(=O)N(c2cc(F)cc(F)c2)[C@H](C(=O)NC2CC(F)(F)C2)c2ccccc2Cl)c1` [Compound 100, (S)—N—((S)-1-(2-Chlorophenyl)-2-((3,3-difluorocyclobutyl)amino)-2-oxoethyl)-1-(4-cyanopyridin-2-yl)-N-(3,5-difluorophenyl)-6-oxopiperazine-2-carboxamide] is less than 100 nM.
